Assay results published in patent US20260248128A1, “INSECT NEUROPEPTIDE ANALOGUES” (Solasta Bio Limited, priority 2021, published 2026).
Where no end group is shown, it is not given here. [ ]: non-standard residue; d: D form. NMeA = CN[C@@H](C)C(=O)O; Ahx = NCCCCCC(=O)O

Experiments:
[1] = test system: M. persicae (peach potato/Green Peach Aphid); assay: IRAC leaf dip assay on adult aphids; type: in vivo, Myzus persicae; conditions: for Peptide efficacy compared with endogenous CAPA-3: adult aphids and nymphs, scored 72, 96 and 120 hours
Method: Peptide efficacy (2×10^−4 M) was assessed on M. persicae (peach potato/Green Peach Aphid) using IRAC leaf dip assays on adult aphids. Peptides were administered on leaves either in DDH2O or Amino Acid Mix (Sadeghi et al., 2010) to increase uptake via feeding. Insecticide treatment was with Spirotetramat, 2×10^−4 M
Data are from 120 hours post-treatment, indicating % adult lethality (left panel); and number of nymphs per sample (right panel) for each of SB-P-1 (endogenous CAPA-3, N =26 (H2O); 15 (AA)), SB-P-14 (CAPA-3 analogue, N=5); SB-P-15 (CAPA-3 analogue, N=10). Peptide application rates are 2×10^−4 M. Note that nymph values for spirotetramat are 0.
Data are for 120 hours, indicating % adult lethality (left panel); and number of nymphs per sample (right panel). Individual data points are shown, N=5. Peptide application rates are 2×10^−4 M.

[2] = test system: M. persicae CAPA receptor; assay: activation assay (IP1 assay) for M. persicae CAPA receptor; type: cell-based, Myzus persicae; conditions: initial screen, FIG. 7
H. halys CAPA receptor = conditions: data in Ahn et al, 2020; cited from earlier work
Pyrokinin receptor = conditions: Brown Marmorated Stinkbug, H. halys; Ahn et al., 2020; cited from earlier work
[3] = leaf dip, peptide 2×10^−4 M, 120 hours

## CCOC(=O)OC1=C(c2cc(C)ccc2C)C(=O)N[C@]12CC[C@@H](OC)CC2 [spirotetramat, Spirotetramat, reference compound]
[1]; 120 hours post-treatment, 2×10^−4 M
  number of nymphs per sample: 0

## H-SDSKNTALWFGPRL-NH2 [SB-P-1]
[2]
  activation of M. persicae CAPA receptor: do not activate
H. halys CAPA receptor
  activation of H. halys CAPA receptor: does not activate
Pyrokinin receptor
  activation of Pyrokinin receptor: activate

## Hy-Ahx-SDSKNT[n-me-A]LWFGPRL-[NH2] ([Ahx]SDSKNT[NMeA]LWFGPRL-NH2; N-terminus assumed; SMILES CC(C)C[C@H](NC(=O)[C@H](CCCNC(=N)N)NC(=O)[C@@H]1CCCN1C(=O)CNC(=O)[C@H](Cc1ccccc1)NC(=O)[C@H](Cc1c[nH]c2ccccc12)NC(=O)[C@H](CC(C)C)NC(=O)[C@H](C)N(C)C(=O)[C@@H](NC(=O)[C@H](CC(N)=O)NC(=O)[C@H](CCCCN)NC(=O)[C@H](CO)NC(=O)[C@H](CC(=O)O)NC(=O)[C@H](CO)NC(=O)CCCCCN)[C@@H](C)O)C(N)=O) [SB-P-14]
[1]; leaf dip, peptide 2×10^−4 M
  Peptide efficacy compared with endogenous CAPA-3: did not perform as well as endogenous CAPA-3

## Hy-SDSKNT[n-me-A]LWFGPRL-[nh2] [SB-P-15]
[1]; leaf dip, peptide 2×10^−4 M
  Peptide efficacy compared with endogenous CAPA-3: an improvement on endogenous CAPA-3 efficacy
[1]; [3]
  aphicidal efficacy (adult lethality): highly effective
  nymphicidal efficacy: highly effective
[2]
  activation of M. persicae CAPA receptor: do not activate
